In patent US9644039B2, “Acid-degradable and bioerodible modified polyhydroxylated materials” (The Regents of the University of California, priority 2008, dated 2017):

Columns and labels:
B16 tumor = experiment: Chemotherapy of subcutaneous B16 tumor with DOX particles; assay type: in vivo, mice; conditions: injected after 3 days
Experimental: To determine the maximum in vivo tolerated dose for the particles, a varying concentration of doses of 0 (PBS), 20, 40, and 60 mg/kg DOX equivalents are injected intravenously. The weights and general health of the mice are monitored until the ninth day after injection. Based on weight loss, the maximum injection of particles tolerated in mice is calculated. Once determined, mice are implanted subcutaneously with a B16 tumor. After 3 days mice are injected with PBS, free DOX, Ac-DEX particles encapsulating DOX, pegylated-Ac-DEX particles, or Doxcil (a commercially available doxorubicin/liposome conjugate). Mice are monitored for tumor growth. Once the tumor reaches an average diameter of 1.5 cm, the mice are sacrificed.

RAW macrophages = experiment: B3Z / LacZ MHC Class I antigen presentation assay; assay type: cell-based; conditions: APCs incubated with free or encapsulated ovalbumin
Experimental: The LacZ MHC Class I antigen presentation assay, as described by Sanderson, S.; Shastri, N. in Inter. Immun. 1994, 6, 369-376, is performed with degradable polymer particles made according to Example 3 with the modified hydroxylated polymers of Example 2 to test their ability to deliver proteins into APCs for Class I antigen presentation. This experiment uses the LacZ B3Z hybridoma, which is a CTL that recognizes the peptide sequence, […] (SEQ ID NO: 8), from ovalbumin, complexed with the MHC Class I molecule H-2K^b. This hybridoma produces β-galactosidase after encountering APCs that present […] as a Class I antigen, thus allowing Class I antigen presentation to be quantified by measuring β-galactosidase activity.
In order to assess the feasibility of using Ac-DEX based materials for vaccine applications, OVA-loaded Ac-DEX particles were incubated with RAW macrophages. […] 1×10^4 RAW macrophages were seeded overnight in a 96 well plate and subsequently incubated with OVA-containing Ac-DEX particles or free OVA. […] After six hours of incubation, Ac-DEX particles increased MHC class I presentation of the OVA-derived CD8^+ T-cell epitope, […], by a factor of 16 relative to free OVA (FIG. 15) measured by the B3Z assay (Karttunen, J.; Shastri, N., Proc. Natl. Acad. Sci. U.S.A. 1991, 88, 3972-6).

MO5 tumor cells = experiment: Tumor prophylactic vaccination, MO5 tumor challenge; assay type: in vivo, Mice; conditions: immunized subcutaneously day 0, 200,000 MO5 tumor cells day 7
Experimental: In one embodiment, Ac-DEX particles will encapsulate OVA similar to (Example 9 with B3Z assay) and be used in a tumor prophylactic and treatment vaccination against cancer. MO5 is a B16 tumor cell line that expresses OVA (Falo et al. 1995, Targeting antigen into the phagocytic pathway in vivo induces protective tumour immunity. Nat Med 1:649-53). Mice are immunized subcutaneously with 2 mg of Ac-DEX particles with a 2.5 wt % loading of OVA (50 μg of OVA) in the left flank on day 0. Other groups include mice which are injected with either OVA, saline, or Ac-DEX particles encapsulating OVA and an immunostimulatory CpG stimulant. We have shown earlier that adding CpG with acid labile particles drastically increases the efficacy of treatment(Standley et al. 2007, Incorporation of CpG oligonucleotide ligand into protein-loaded particle vaccines promotes antigen-specific CD8 T-cell immunity. Bioconjug Chem 18:77-83). CpG can be either co-injected with the particles, or it can be encapsulated inside the particles. […]
After injection, the tumor growth is monitored by measuring two perpendicular axes using calipers. Tumor volume is then calculated using the equation, volume=[…], with the length being the longest diameter and the width being the shortest diameter of the two perpendicular measurements. […]

| Compound | tumor growth (order of groups) (B16 tumor) | activation of CTLs (Class I antigen presentation) (RAW macrophages) | tumor onset, tumor growth and survival time (MO5 tumor cells) |
| --- | --- | --- | --- |
| COc1cccc2c1C(=O)c1c(O)c3c(c(O)c1C2=O)C[C@@](O)(C(=O)CO)C[C@@H]3O[C@H]1C[C@H](N)[C@H](O)[C@H](C)O1 [free Dox, doxorubicin] | fastest tumor growth followed by, free Dox, Ac-DEX particles, Doxcil and finally PEGylated Ac-DEX particles | – | – |
| free ovalbumin: ovalbumin, model protein antigen, not encapsulated | – | not able to activate CTLs | fastest tumor onset and tumor growth |
